Measured values taken from ChEMBL document CHEMBL1201862, “PubChem BioAssay data set” (2004).
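Compound exposure: 48 hours, 5 concentrations, 96-well plates. GI50 marks 50% less growth.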 Calls of active or inactive are those of the source. No stated cut-off is given here; in the data, active = GI50 up to about 1.1 µM and inactive = higher.

Assays:
Test in all cases: DTP human tumour cell line panel, 48 h
HCT-116 = test system: HCT-116
NCI-H522 = test system: NCI-H522
K562 = test system: K562
MCF7 = test system: MCF7
NCI-H23 = test system: NCI-H23
DU-145 = test system: DU-145
Malme-3M = test system: Malme-3M
A549 = test system: A549
RXF 393 = test system: RXF 393
HL-60 = test system: HL-60
NCI/ADR-RES = test system: NCI/ADR-RES
SN12C = test system: SN12C
SF-268 = test system: SF-268
SK-OV-3 = test system: SK-OV-3
SK-MEL-28 = test system: SK-MEL-28
OVCAR-5 = test system: OVCAR-5
NCI-H460 = test system: NCI-H460
MDA-MB-231 = test system: MDA-MB-231
T47D = test system: T47D
SF-539 = test system: SF-539

Measured: GI50

CC(C)[C@H](NC(=O)[C@H](N)Cc1ccc(N(CCCl)CCCl)cc1)C(=O)O
inactive: HCT-116 > 100 µM | NCI-H522 > 100 µM | K562 > 100 µM | MCF7 > 100 µM | NCI-H23 > 100 µM | DU-145 > 100 µM | Malme-3M > 100 µM | A549 > 100 µM | RXF 393 > 100 µM | HL-60 > 100 µM | NCI/ADR-RES > 100 µM | SN12C > 100 µM | SF-268 > 100 µM | SK-OV-3 > 100 µM | SK-MEL-28 > 100 µM | OVCAR-5 > 100 µM | NCI-H460 > 100 µM | MDA-MB-231 > 100 µM | T47D > 100 µM

O=C(C[C@@H]1CCCN2CCCC[C@H]12)N1c2ccccc2Sc2ccc(Cl)cc21
inactive: HCT-116 16 µM | NCI-H522 13.5 µM | K562 13.8 µM | MCF7 18.2 µM | NCI-H23 14.7 µM | DU-145 14 µM | Malme-3M 16.2 µM | A549 16.6 µM | RXF 393 13.6 µM | HL-60 14.5 µM | NCI/ADR-RES 14.8 µM | SN12C 16.7 µM | SF-268 19.2 µM | SK-MEL-28 13.2 µM | OVCAR-5 13.4 µM | NCI-H460 14.7 µM | SF-539 16.6 µM | MDA-MB-231 14.7 µM | T47D 20.5 µM

Cc1ccc(S(=O)(=O)Oc2ccc(OS(=O)(=O)c3ccc(C)cc3)c3c2C(=O)c2ccccc2C3=O)cc1
inactive: HCT-116 > 100 µM | NCI-H522 > 100 µM | K562 > 100 µM | MCF7 > 100 µM | NCI-H23 > 100 µM | DU-145 > 100 µM | Malme-3M > 100 µM | A549 > 100 µM | RXF 393 23.6 µM | HL-60 > 100 µM | NCI/ADR-RES > 100 µM | SN12C > 100 µM | SF-268 > 100 µM | SK-OV-3 > 100 µM | SK-MEL-28 > 100 µM | OVCAR-5 > 100 µM | NCI-H460 > 100 µM | SF-539 33 µM | MDA-MB-231 66.7 µM | T47D > 100 µM

O=[N+]([O-])c1ccc2c(Nc3ccccc3-c3ccccc3Nc3c4ccccc4nc4cc([N+](=O)[O-])ccc34)c3ccccc3nc2c1
inactive: HCT-116 1.65 µM | NCI-H522 3.87 µM | K562 1.57 µM | MCF7 4.18 µM | NCI-H23 10.8 µM | DU-145 6.89 µM | Malme-3M 8.63 µM | A549 6.07 µM | RXF 393 1.52 µM | HL-60 2.68 µM | NCI/ADR-RES 7.41 µM | SN12C 2.54 µM | SF-268 6.55 µM | SK-OV-3 13.2 µM | SK-MEL-28 24.2 µM | OVCAR-5 25.9 µM | NCI-H460 2.5 µM | SF-539 4.59 µM | MDA-MB-231 2.31 µM | T47D 7.24 µM

O=Cc1ccc2c(c1)CC1(C2)Cc2ccc(C=O)cc2C1
inactive: HCT-116 7.52 µM | NCI-H522 22.6 µM | K562 2.89 µM | MCF7 31.8 µM | NCI-H23 17.6 µM | DU-145 35.5 µM | Malme-3M 20 µM | A549 40.5 µM | RXF 393 3.61 µM | HL-60 2 µM | NCI/ADR-RES 4.88 µM | SN12C 28.2 µM | SF-268 13.4 µM | SK-OV-3 55.2 µM | SK-MEL-28 23.7 µM | OVCAR-5 > 77.1 µM | NCI-H460 11.6 µM | SF-539 4.81 µM | MDA-MB-231 12.2 µM | T47D 25.8 µM

C=CCOC(=O)/C(=C\c1ccc(OC)c(OC)c1)c1ccc(OC)c(OC)c1
inactive: HCT-116 25.2 µM | NCI-H522 > 100 µM | K562 57.8 µM | MCF7 47.2 µM | NCI-H23 39.2 µM | DU-145 > 100 µM | Malme-3M 91.6 µM | A549 61.7 µM | RXF 393 27.9 µM | HL-60 15.5 µM | NCI/ADR-RES 40.6 µM | SN12C > 100 µM | SF-268 52.7 µM | SK-OV-3 > 100 µM | SK-MEL-28 33.1 µM | OVCAR-5 > 100 µM | NCI-H460 25.4 µM | SF-539 > 100 µM | MDA-MB-231 > 100 µM | T47D 29.8 µM

C#CC(O)/C=C/C(O)CCCC(O)CC#CC(O)C#CCCCCC(O)/C=C/CCCC(=O)CCCCCCCCCCCCCCCC(O)C(O)C#CC(=O)O (configuration not stated)
inactive: HCT-116 > 25 µM | NCI-H522 6.28 µM | K562 > 25 µM | MCF7 > 25 µM | NCI-H23 > 25 µM | DU-145 > 25 µM | Malme-3M > 25 µM | A549 > 25 µM | RXF 393 9.64 µM | HL-60 > 25 µM | NCI/ADR-RES > 25 µM | SN12C > 25 µM | SF-268 > 25 µM | SK-OV-3 > 25 µM | SK-MEL-28 > 25 µM | OVCAR-5 > 25 µM | NCI-H460 > 25 µM | MDA-MB-231 > 25 µM | T47D 14.2 µM
